Assays:
Acetylcholinesterase = Acetylcholinesterase (Electrophorus electricus, UniProt O42275); assay: Inhibition of electric eel AChE by modified Ellman method
[1] = Selectivity ratio of IC50 for electric eel AChE to IC50 for BChE
Cholinesterase = Cholinesterase (Homo sapiens, UniProt P06276); assay: Inhibition of BChE
Cholinesterase, sequence (P06276 whole entry): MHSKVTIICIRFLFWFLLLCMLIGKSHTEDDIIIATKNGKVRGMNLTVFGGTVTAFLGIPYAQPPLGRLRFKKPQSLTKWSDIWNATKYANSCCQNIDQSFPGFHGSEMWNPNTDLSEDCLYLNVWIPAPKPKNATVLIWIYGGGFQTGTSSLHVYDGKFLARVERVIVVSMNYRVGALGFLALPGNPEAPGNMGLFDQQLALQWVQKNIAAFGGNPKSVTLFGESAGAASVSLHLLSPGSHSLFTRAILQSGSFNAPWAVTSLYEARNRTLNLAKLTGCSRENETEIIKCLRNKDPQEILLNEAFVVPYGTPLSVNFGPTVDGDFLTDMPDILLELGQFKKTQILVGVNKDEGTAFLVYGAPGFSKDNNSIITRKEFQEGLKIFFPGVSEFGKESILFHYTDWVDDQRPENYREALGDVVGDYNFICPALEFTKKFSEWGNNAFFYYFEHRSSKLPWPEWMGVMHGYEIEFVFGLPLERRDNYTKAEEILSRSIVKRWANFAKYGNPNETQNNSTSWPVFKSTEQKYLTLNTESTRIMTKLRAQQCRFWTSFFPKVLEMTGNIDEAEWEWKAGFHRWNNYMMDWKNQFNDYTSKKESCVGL

Acetylcholinesterase, sequence (O42275 whole entry): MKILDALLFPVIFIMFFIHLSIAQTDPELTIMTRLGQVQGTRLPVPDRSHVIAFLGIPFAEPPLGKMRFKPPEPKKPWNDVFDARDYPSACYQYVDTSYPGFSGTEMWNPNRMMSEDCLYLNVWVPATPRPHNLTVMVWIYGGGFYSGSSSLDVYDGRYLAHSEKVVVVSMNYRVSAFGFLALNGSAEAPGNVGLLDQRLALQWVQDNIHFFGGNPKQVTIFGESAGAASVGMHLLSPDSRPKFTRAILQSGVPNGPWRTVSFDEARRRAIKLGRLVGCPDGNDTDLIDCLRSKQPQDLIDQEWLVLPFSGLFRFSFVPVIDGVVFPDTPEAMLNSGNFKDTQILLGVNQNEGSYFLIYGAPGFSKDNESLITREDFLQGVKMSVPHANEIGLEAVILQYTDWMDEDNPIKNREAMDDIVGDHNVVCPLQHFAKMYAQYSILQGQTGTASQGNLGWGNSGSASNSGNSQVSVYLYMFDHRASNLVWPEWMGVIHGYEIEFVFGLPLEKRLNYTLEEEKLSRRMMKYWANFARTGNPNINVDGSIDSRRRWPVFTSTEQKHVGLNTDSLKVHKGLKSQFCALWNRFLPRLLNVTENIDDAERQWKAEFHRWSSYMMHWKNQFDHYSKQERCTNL

SMILES | IC50 (Acetylcholinesterase) [µM] | Ratio IC50 [1] | IC50 (Cholinesterase) [µM]
CC(C)C(=O)N[C@H]1CC[C@]2(O)CC3=CC[C@]4(C)[C@@H]([C@H](C)N(C)C)CC[C@@]4(C)[C@@H]3CC[C@H]2C1(C)C [N-ISOBUTYROYLBUXAHYRCANINE] | > 1000 | 18.6 | 53.7
C[C@@H]([C@H]1CC[C@@]2(C)[C@@H]3CC[C@H]4C(C)(C)[C@@H](NC(=O)c5ccccc5)CC[C@]4(O)CC3=CC[C@]12C)N(C)C [N-BENZOYLBUXAHYRCANINE] | > 1000 | 3.2 | 311
C/C=C(\C)C(=O)N[C@H]1CC[C@]2(O)CC3=CC[C@]4(C)[C@@H]([C@H](C)N(C)C)CC[C@@]4(C)[C@@H]3CC[C@H]2C1(C)C [N-TIGLOYLBUXAHYRCANINE] | 444 | 14.2 | 31.2
